Data set [1] deals with SKOV-3 cells (human ovarian carcinoma). As to the kind of experiment: SKOV-3 xenograft combination experiment. It counts as in vivo, nude mice (NMRI nu/nu). As to conditions: SKOV-3 tumours in nude mice, 15 mg/kg daily per os, day 31. The protocol:
The following experiment was performed in order to investigate the effect of a combination therapy with suboptimal doses of an antagonist of at least one receptor selected from VEGFR 1 to 3, PDGFRα and β, FGFR1, 2 and 3, EGFR, HER2, IGF1R, HGFR or c-Kit, which is further an antagonist of a src tyrosine kinase family member, namely the di-chloride salt of (Z)-3-(1-(4-(N-((4-methyl-piperazin-1-yl)-methylcarbonyl)-N-methyl-amino)-phenylamino)-1-phenyl-methylene]-6-methoxycarbonyl-2-indolinone (compound referred to as C12(T)), which is the di-chloride salt of above exemplified compound (T), and a dual antagonist of the epidermal growth factor (EGF) receptor and of the human epidermal growth factor of type 2 (HE type 2) receptor, namely the compound 4-[(3-chloro-4-fluorophenyl)amino]-6-{[4-(N,N-dimethylamino)-1-oxo-2-buten-1-yl]amino}-7-((S)-tetrahydrofuran-3-yloxy)-quinazoline, (compound referred to as EGFR/HER2 inh., and described in WO 02/50043 as exemplified compound of Example 1(10)), on the reduction of tumour growth, in comparison to the mono-therapies at the same doses. […]
Daily per os treatment was initially performed for 31 days. […] The calculated treated tumour to control tumour (T/C) ratio at this time point was 35% for the group treated with 15 mg/kg EGFR/HER2 inh., 32% for the group treated with 50 mg/kg C12(T), and 13% for the group treated with the combination. […]

The next data set has as its target CDK2 (Homo sapiens, UniProt P24941). As to the kind of experiment: kinase inhibition panel (Table I). It counts as biochemical.
Another data set has as its target Lyn (Homo sapiens, UniProt P07948). As to the kind of experiment: kinase inhibition panel (Table I). Type of data set: biochemical.
The test system of data set [2] is FaDu tumours (human squamous carcinoma cells). As to the kind of experiment: in vivo xenograft experiment, subcutaneous FaDu tumours. As to conditions: nude mice, 100 mg/kg orally twice weekly. The protocol:
By increasing the dose to 200 mg/kg orally twice weekly an even better anti-tumour effect is expected.

Data set [3] relates to IL-6 secretion by BMSC cells. As to the kind of experiment: IL-6 secretion by bone marrow stromal cells (Table II). Type of data set: cell-based. The source says:
For comparison, the inhibition effect with inhibition of anti-bFGF (+anti-bFGF), anti-VEGF (+anti-VEGF) and a combination of anti-bFGF and anti-VEGF (+anti-VEGF+anti-bFGF) were also investigated.

The test system of data set [4] is IL-6 secretion by BMSC mono-cultures. As to the kind of experiment: IL-6 secretion of BMSC mono-cultures (Table III). Type of data set: cell-based. The text has this: (§1) For comparison, the inhibition effect on BMSC mono-cultures (native) and, as control, the level of secretion of U266 mono-cultures, were also investigated.
Data set [5] has as its system IL-6 secretion in U-266 + BMSC co-cultures. As to the kind of experiment: IL-6 secretion in transwell and contact co-cultures of U-266 myeloma cells and BMSC cells (Table III). It counts as cell-based.
Description: as §1

For data set [6], the system named is t(14;16) MM1.s myeloma cells. As to the kind of experiment: apoptosis of myeloma cells. Type of data set: cell-based.
A short description of the next data set: oral bioavailability. It counts as in vivo. As to conditions: mice.
The subject of the next data set is cell lines with t(4;14). As to the kind of experiment: apoptosis on cell lines with t(4;14). Type of data set: cell-based. As to conditions: in vitro.
Data set [7] deals with IL-6 secretion by BMSC cells. As to the kind of experiment: IL-6 secretion by bone marrow stromal cells (Table II). Type of data set: cell-based. This is another data set of the same source.
The conditions of data set [8]: clinically tested, also in conjunction with chemotherapy; cited from earlier work.

What is called IC50 is the midpoint of a concentration-inhibition curve. A lower IC50 goes with inhibition by little substance.

Chain of Lyn (P07948 whole entry, species assumed): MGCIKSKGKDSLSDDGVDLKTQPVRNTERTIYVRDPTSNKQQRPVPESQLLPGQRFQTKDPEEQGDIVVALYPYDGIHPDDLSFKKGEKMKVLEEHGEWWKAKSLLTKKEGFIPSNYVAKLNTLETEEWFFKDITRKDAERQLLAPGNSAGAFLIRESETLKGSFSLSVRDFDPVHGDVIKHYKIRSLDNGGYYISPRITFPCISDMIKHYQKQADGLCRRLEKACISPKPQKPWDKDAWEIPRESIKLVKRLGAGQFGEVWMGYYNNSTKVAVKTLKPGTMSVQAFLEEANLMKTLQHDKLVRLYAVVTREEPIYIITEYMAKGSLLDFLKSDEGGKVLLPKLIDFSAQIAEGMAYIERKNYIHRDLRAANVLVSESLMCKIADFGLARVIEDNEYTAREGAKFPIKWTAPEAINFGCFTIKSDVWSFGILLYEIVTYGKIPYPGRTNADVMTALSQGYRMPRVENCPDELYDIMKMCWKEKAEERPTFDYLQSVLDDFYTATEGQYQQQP

Consider `CN(C)CC=CC(=O)Nc1cc2c(Nc3ccc(F)c(Cl)c3)ncnc2cc1O[C@H]1CCOC1` [EGFR/HER2 inh., 4-[(3-chloro-4-fluorophenyl)amino]-6-{[4-(N,N-dimethylamino)-1-oxo-2-buten-1-yl]amino}-7-((S)-tetrahydrofuran-3-yloxy)-quinazoline], for which the “treated tumour to control tumour (T/C) ratio” value in [1] is on record as 35%.
As to `CCS(=O)(=O)O.COC(=O)c1ccc2c(c1)NC(=O)/C2=C(\Nc1ccc(N(C)C(=O)CN2CCN(C)CC2)cc1)c1ccccc1` [MES(T), monoethanesulfonate salt of 3-Z-[1-(4-(N-((4-methyl-piperazin-1-yl)-methylcarbonyl)-N-methyl-amino)-anilino)-1-phenyl-methylene]-6-methoxycarbonyl-2-indolinone], the IC50 against CDK2 is over 10 µM; against Lyn, 0.195 µM. In addition, the “T/C (Tumour/Control) value” in [2] was 31%. The “IL-6 secretion by BMSC cells” value in data set [3] (+anti-VEGF + anti-bFGF, MES(T) 250 nM) is listed as 45.0; in data set [3] (+anti-VEGF + anti-bFGF, MES(T) 500 nM), 13.5; in [3] (+anti-bFGF, MES(T) 50 nM), 81.3; in data set [3] (+anti-bFGF, MES(T) 125 nM), 42.4; in data set [3] (+anti-bFGF, MES(T) 250 nM), 33.0; in data set [7] (+VEGF, MES(T) 10 nM), 122.3. Also, the “IL-6 secretion by BMSC cells” value in data set [7] (+VEGF, MES(T) 50 nM) was found to be 130.7; in data set [7] (+VEGF, MES(T) 125 nM) it was 141.0; in data set [7] (+VEGF, MES(T) 250 nM) it was 65.5; in data set [7] (+VEGF, MES(T) 500 nM), 14.8; in data set [7] (+anti-VEGF + anti-bFGF, MES(T) 10 nM), 68.1; in data set [7] (+anti-VEGF + anti-bFGF, MES(T) 50 nM), 63.4. Also, the “IL-6 secretion by BMSC cells” value in data set [7] (+anti-VEGF + anti-bFGF, MES(T) 125 nM) worked out at 86.1; in data set [7] (+anti-VEGF, MES(T) 10 nM), 148.6; in [7] (+anti-VEGF, MES(T) 50 nM), 155.2; in [7] (+anti-VEGF, MES(T) 125 nM), 166.7; in data set [7] (+anti-VEGF, MES(T) 250 nM) it was 89.4; in data set [7] (+anti-VEGF, MES(T) 500 nM), 16.2. The “IL-6 secretion by BMSC cells” value in data set [7] (+anti-bFGF, MES(T) 10 nM) worked out at 68.9; in data set [7] (+anti-bFGF, MES(T) 500 nM), 20.2; in [7] (+bFGF, MES(T) 10 nM) it was 150.5; in [7] (+bFGF, MES(T) 50 nM) it was 179.7; in [7] (+bFGF, MES(T) 125 nM), 91.2; in data set [7] (+bFGF, MES(T) 250 nM), 76.9. Moreover, the “IL-6 secretion by BMSC cells” value in [7] (+bFGF, MES(T) 500 nM) came out at 43.4; in data set [7] (native, MES(T) 10 nM), 130.2; in data set [7] (native, MES(T) 50 nM) it was 170.4; in data set [7] (native, MES(T) 125 nM) it was 97.5; in [7] (native, MES(T) 250 nM), 76.5; in data set [7] (native, MES(T) 500 nM) it was 39.6. For the same compound, the “IL-6 secretion, BMSC mono-cultures” value was 213.4 in [4] (MES(T) 50 nM), 192.1 in data set [4] (MES(T) 125 nM), 69.9 in data set [4] (MES(T) 250 nM) and 38.6 in data set [4] (MES(T) 500 nM). Besides, the results for the “IL-6 secretion, Contact U-266 + BMSC co-cultures” value in data set [5] (MES(T) 125 nM), in data set [5] (MES(T) 250 nM) and in [5] (MES(T) 500 nM) were 259.6, 199.4 and 114.7, respectively. For the same compound, the “effect on IL-6 secretion of BMSC cultures stimulated by myeloma cells” value in data set [5] (transwell and contact co-cultures) is “decrease to its basal (native) value the level of IL-6 secretion”. The “IL-6 secretion, Transwell U-266 + BMSC co-cultures” value in data set [5] (MES(T) 50 nM) is given as 354.5; in data set [5] (MES(T) 125 nM), 297.6; in data set [5] (MES(T) 250 nM), 231.1; in data set [5] (MES(T) 500 nM), 123.9. Also, in data set [6] (combined with dexamethasone), the “effect on dexamethasone-induced apoptosis” value was “enhances the apoptosis induced by dexamethasone”. Further, the “apoptosis of myeloma cells” value in data set [6] (t(14;16) MM1.s myeloma cells, MES(T) alone) is reported as “pro-apoptotic effects”. Moreover, the oral bioavailability result in “oral bioavailability” is “orally bioavailable”. Besides, in the data set on cell lines with t(4;14), the “apoptosis on cell lines with t(4;14)” value is listed as “Direct induction of apoptosis”.
Take `Cc1cc(C)c(/C=C2\C(=O)Nc3ccccc32)[nH]1` [SU5416]: in data set [8], the “side effect in clinical testing” value is given as “thromboembolic events”.

These data come from patent US7846936B2, “Combinations for the treatment of diseases involving cell proliferation, migration or apoptosis of myeloma cells or angiogenesis” (Boehringer Ingelheim International GmbH, priority 2003, dated 2010).
